Laboratory results from patent publication US10125095B2, “Abscisic acid derivative” (NATIONAL UNIVERSITY CORPORATION SHIZUOKA UNIVERSITY, priority 2014, dated 2018).

How the values were obtained:
Type in all cases: biochemical, thale cress
Conditions in all cases: control = 100%
PYL1 = target: T1, PYL1 (Arabidopsis thaliana, UniProt Q8VZS8); test: Protein dephosphorylation enzyme activity test, PYL1
T1 construct: 6xHis (N); made in house; host or cells: Escherichia coli BL21-codonplus(DE3)-RIPL (PYL); BL21(DE3)pLysS (HAB1)
T1 sequence (Q8VZS8 1-221): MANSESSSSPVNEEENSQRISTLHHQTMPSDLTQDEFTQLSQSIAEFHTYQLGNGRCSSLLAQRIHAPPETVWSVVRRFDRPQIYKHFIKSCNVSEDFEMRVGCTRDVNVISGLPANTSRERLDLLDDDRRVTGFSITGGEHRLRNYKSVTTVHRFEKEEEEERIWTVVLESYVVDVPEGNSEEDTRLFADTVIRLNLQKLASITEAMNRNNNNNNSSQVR
Procedure: (§1) A plasmid (pGex-2T-GST-HAB1 or pET28-6×His-PYL) encoded with PYR/PYL/RCAR proteins (PYL, abscisic acid receptor) or protein dephosphorylation enzyme HAB1 of thale cress was transformed to Escherichia coli (HAB1:BL21(DE3)pLysS, PYL:BL21-codonplus(DE3)-RIPL). Isopropyl-β-thiogalactopyranoside was added to the culture broth, which had been subjected to pre-culture (30° C., 180 rpm, 15 hours) and main culture (30° C., 180 rpm, 4 hours), and the protein-expressed (16° C., 150 rpm, 18 hours) crude enzyme solution was purified using FPLC thereby preparing the recombined PYL (PYR1, PYL1-6, PYL8-10) and HAB1. β-Mercaptoethanol, a manganese chloride aqueous solution, HAB1, PYL, a solution of the sample in dimethylsulfoxide and ultrapure water were sequentially added to a 96-well plate, allowed to stand at 22° C. for 30 minutes. Subsequently p-nitrophenylphosphate, which is the artificial substrate of HAB1, was added thereto to start the reaction, and the plate was placed in a microplate reader (TECAN, Infinite™ N200 NanoQuant). The absorbance at 405 nm due to p-nitrophenol, which is the hydrolysate of p-nitrophenylphosphate, was measured 3 minutes later from the reaction initiation, and HAB1 activity was calculated by the following formula (2). Note that the fraction to which only dimethylsulfoxide was added was considered to be the control and the activity thereof was defined as 100%. […] HAB1 specific activity (%)=Absorbance when sample was added/Absorbance of control×100 (2)

PYL2 = target: T2, PYL2 (Arabidopsis thaliana, UniProt O80992); test: Protein dephosphorylation enzyme activity test, PYL2
T2 construct: 6xHis (N); made in house; host or cells: Escherichia coli BL21-codonplus(DE3)-RIPL (PYL); BL21(DE3)pLysS (HAB1)
T2 sequence (O80992 1-190): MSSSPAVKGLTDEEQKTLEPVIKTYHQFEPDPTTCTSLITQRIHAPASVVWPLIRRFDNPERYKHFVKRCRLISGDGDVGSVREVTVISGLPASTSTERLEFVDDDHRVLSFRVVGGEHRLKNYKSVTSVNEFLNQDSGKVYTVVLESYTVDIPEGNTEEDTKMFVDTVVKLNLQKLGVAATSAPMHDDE
Procedure: as §1

PYL3 = target: T3, PYL3 (Arabidopsis thaliana, UniProt Q9SSM7); test: Protein dephosphorylation enzyme activity test, PYL3
T3 construct: 6xHis (N); made in house; host or cells: Escherichia coli BL21-codonplus(DE3)-RIPL (PYL); BL21(DE3)pLysS (HAB1)
T3 sequence (Q9SSM7 1-209): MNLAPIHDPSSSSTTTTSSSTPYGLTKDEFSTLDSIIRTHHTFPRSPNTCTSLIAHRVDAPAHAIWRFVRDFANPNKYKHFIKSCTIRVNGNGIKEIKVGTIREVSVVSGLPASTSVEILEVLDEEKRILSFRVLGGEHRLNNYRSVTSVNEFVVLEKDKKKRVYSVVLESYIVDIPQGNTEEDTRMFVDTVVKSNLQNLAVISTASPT
Procedure: as §1

PYL4 = target: T4, PYL4 (Arabidopsis thaliana, UniProt O80920); test: Protein dephosphorylation enzyme activity test, PYL4
T4 construct: 6xHis (N); made in house; host or cells: Escherichia coli BL21-codonplus(DE3)-RIPL (PYL); BL21(DE3)pLysS (HAB1)
T4 sequence (O80920 1-207): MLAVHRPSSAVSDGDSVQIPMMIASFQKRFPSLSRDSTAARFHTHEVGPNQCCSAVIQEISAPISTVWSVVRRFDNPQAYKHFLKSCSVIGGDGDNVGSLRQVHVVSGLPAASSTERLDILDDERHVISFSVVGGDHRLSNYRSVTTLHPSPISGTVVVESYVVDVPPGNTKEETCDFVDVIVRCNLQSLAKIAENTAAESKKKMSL
Procedure: as §1

PYL5 = target: T5, PYL5 (Arabidopsis thaliana, UniProt Q9FLB1); test: Protein dephosphorylation enzyme activity test, PYL5
T5 construct: 6xHis (N); made in house; host or cells: Escherichia coli BL21-codonplus(DE3)-RIPL (PYL); BL21(DE3)pLysS (HAB1)
T5 sequence (Q9FLB1 1-203): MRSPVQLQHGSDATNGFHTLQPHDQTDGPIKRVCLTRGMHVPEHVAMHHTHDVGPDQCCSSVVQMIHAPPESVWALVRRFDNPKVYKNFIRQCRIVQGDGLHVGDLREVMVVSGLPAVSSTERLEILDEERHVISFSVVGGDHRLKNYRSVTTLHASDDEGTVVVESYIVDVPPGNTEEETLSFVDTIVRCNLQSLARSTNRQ
Procedure: as §1

PYL6 = target: T6, PYL6 (Arabidopsis thaliana, UniProt Q8S8E3); test: Protein dephosphorylation enzyme activity test, PYL6
T6 construct: 6xHis (N); made in house; host or cells: Escherichia coli BL21-codonplus(DE3)-RIPL (PYL); BL21(DE3)pLysS (HAB1)
T6 sequence (Q8S8E3 1-215): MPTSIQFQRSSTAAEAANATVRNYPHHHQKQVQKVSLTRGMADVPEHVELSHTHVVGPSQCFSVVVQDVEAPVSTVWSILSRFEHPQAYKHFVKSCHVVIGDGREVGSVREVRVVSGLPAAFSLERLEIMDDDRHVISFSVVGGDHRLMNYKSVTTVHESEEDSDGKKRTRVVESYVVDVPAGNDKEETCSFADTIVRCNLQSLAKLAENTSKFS
Procedure: as §1

SMILES: CC1=C[C@@H](OCC#Cc2ccccc2)CC(C)(C)[C@@]1(O)/C=C/C(C)=C\C(=O)O [Example 1, (2Z,4E)-5-((1S,4S)-1-hydroxy-2,6,6-trimethyl-4-((3-phenylprop-2-yn-1-yl)oxy)cyclohex-2-en-1-yl)-3-methylpenta-2,4-dienoic acid]
- HAB1 Specific activity (%) PYL1 (PYL1; ABA + compound): 55.6%
- HAB1 Specific activity (%) PYL1 (PYL1; sample alone): 98.1%
- HAB1 Specific activity (%) PYL2 (PYL2; ABA + compound): 84.8%
- HAB1 Specific activity (%) PYL2 (PYL2; sample alone): 96.6%
- HAB1 Specific activity (%) PYL3 (PYL3; ABA + compound): 49.2%
- HAB1 Specific activity (%) PYL3 (PYL3; sample alone): 88.6%
- HAB1 Specific activity (%) PYL4 (PYL4; sample alone): 108%
- HAB1 Specific activity (%) PYL5 (PYL5; ABA + compound): 87%
- HAB1 Specific activity (%) PYL5 (PYL5; sample alone): 85.8%
- HAB1 Specific activity (%) PYL6 (PYL6; ABA + compound): 87.6%
- HAB1 Specific activity (%) PYL6 (PYL6; sample alone): 122%

SMILES: CC1=C[C@@H](OCC#Cc2ccc(C)cc2)CC(C)(C)[C@@]1(O)/C=C/C(C)=C\C(=O)O [Example 7]
- HAB1 Specific activity (%) PYL1 (PYL1; ABA + compound): 87.7%
- HAB1 Specific activity (%) PYL1 (PYL1; sample alone): 136%
- HAB1 Specific activity (%) PYL2 (PYL2; ABA + compound): 113%
- HAB1 Specific activity (%) PYL2 (PYL2; sample alone): 133%
- HAB1 Specific activity (%) PYL3 (PYL3; ABA + compound): 61%
- HAB1 Specific activity (%) PYL3 (PYL3; sample alone): 121%
- HAB1 Specific activity (%) PYL4 (PYL4; ABA + compound): 101%
- HAB1 Specific activity (%) PYL4 (PYL4; sample alone): 119%
- HAB1 Specific activity (%) PYL5 (PYL5; ABA + compound): 74.6%
- HAB1 Specific activity (%) PYL5 (PYL5; sample alone): 85.5%
- HAB1 Specific activity (%) PYL6 (PYL6; ABA + compound): 61.0%
- HAB1 Specific activity (%) PYL6 (PYL6; sample alone): 93.5%

SMILES: CC1=CC(=O)CC(C)(C)[C@@]1(O)/C=C/C(C)=C\C(=O)O [ABA, abscisic acid]
- HAB1 Specific activity (%) PYL1 (PYL1; sample alone): 18.6%
- HAB1 Specific activity (%) PYL2 (PYL2; sample alone): 13.1%
- HAB1 Specific activity (%) PYL3 (PYL3; sample alone): 16.8%
- HAB1 Specific activity (%) PYL4 (PYL4; sample alone): 18.2%
- HAB1 Specific activity (%) PYL5 (PYL5; sample alone): 15.5%
- HAB1 Specific activity (%) PYL6 (PYL6; sample alone): 19.5%
